Test results from PubChem BioAssay AID503.

Target: Regulator of G-protein signaling 18 (Homo sapiens) (UniProt Q9NS28)
Assay: RGS18 binders by thermal stabilization, biophysical, recombinant human protein, DSF (AID 503)
Details: SYPRO orange, at 10 µM, protein 2 µM, buffer 10 mM HEPES, pH 7.5, NaCl 150 mM, stronger effect = higher value

Sequence of Regulator of G-protein signaling 18 (Homo sapiens) (Q9NS28 whole entry, looked up): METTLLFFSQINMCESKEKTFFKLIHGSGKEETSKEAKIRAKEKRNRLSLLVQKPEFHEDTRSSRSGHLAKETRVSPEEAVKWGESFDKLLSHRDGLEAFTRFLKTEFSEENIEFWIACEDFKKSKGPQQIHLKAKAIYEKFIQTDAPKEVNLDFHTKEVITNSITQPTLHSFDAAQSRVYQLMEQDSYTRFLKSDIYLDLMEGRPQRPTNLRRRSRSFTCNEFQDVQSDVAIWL

Row | SMILES | Tm shift
1 | O=C(Nc1cccc(Nc2cc(Nc3cccc(C(F)(F)F)c3)ncn2)c1)C1CC1 | 4 °C
2 | O=C1NCc2c1c1c3ccccc3[nH]c1c1[nH]c3ccccc3c21 | 2.6 °C
